Results published in BindingDB's records for doi:10.7270/Q2ZG6QNM (University of Pittsburgh, 2008).
pIC50: −log10 of the molar value.

Target: T1, Serine/threonine-protein kinase D1 (Homo sapiens, UniProt Q15139)
T1 sequence (Q15139 whole entry): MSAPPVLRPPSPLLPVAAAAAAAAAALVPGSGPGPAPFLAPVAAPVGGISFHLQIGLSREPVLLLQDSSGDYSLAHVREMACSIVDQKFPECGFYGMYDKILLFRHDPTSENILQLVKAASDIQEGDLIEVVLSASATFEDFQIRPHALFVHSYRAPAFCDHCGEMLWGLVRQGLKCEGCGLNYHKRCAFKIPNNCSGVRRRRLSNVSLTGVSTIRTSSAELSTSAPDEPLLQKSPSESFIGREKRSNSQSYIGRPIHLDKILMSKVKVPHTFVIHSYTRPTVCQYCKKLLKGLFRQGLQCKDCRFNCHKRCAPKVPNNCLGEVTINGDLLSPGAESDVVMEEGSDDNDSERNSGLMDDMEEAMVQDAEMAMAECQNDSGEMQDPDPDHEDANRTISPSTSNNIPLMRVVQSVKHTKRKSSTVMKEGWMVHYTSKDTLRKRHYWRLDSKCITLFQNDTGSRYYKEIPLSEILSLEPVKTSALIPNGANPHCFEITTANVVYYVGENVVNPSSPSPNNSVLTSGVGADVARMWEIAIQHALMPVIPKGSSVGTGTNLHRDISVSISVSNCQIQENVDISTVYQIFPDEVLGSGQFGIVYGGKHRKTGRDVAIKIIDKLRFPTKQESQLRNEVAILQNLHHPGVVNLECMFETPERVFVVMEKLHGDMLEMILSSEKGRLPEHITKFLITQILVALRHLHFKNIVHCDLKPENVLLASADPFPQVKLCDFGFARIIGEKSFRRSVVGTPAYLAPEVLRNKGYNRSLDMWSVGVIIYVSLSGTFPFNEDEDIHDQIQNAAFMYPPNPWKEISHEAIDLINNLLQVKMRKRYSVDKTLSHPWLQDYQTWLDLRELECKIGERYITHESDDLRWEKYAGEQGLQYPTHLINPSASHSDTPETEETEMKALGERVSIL
Experiment: fluorescence polarization artefacts, biochemical, 57K campaign, artefact control, dose response (AID 1342)

Row | Structure (SMILES) | pIC50
1 | O=C(NNC1=Nc2cccc3cccc1c23)c1ccc(Br)cc1 [SMR000260645] | < 4.30
2 | O=C(CSc1ccncc1)Nc1ccc2ccccc2c1 [N-naphthalen-2-yl-2-pyridin-4-ylsulfanylacetamide] | < 4.30
3 | O=C(CSc1ccc2nnc(-c3cccnc3)n2n1)c1ccccc1 [1-phenyl-2-[[3-(3-pyridinyl)-[1,2,4]triazolo[4,3-b]pyridazin-6-yl]thio]ethanone] | < 4.30
4 | O=[N+]([O-])c1ccc(Nc2c3ccccc3nc3ccccc23)cc1 [MLS000723809] | < 4.30
5 | COc1ccc(Cn2c(=O)[nH]c3cc(C(=O)NC4CCCC4)ccc3c2=O)cc1 [MLS000730065] | < 4.30
6 | CC(N=Nc1ncc(Cl)cc1Cl)c1ccccn1 (stereo not drawn) [3,5-dichloro-N-(1-pyridin-2-ylethylideneamino)pyridin-2-amine] | 4.78
7 | Cn1cccc1C(=O)NC(=O)COC(=O)c1cc(S(=O)(=O)N2CCCCC2)ccc1Cl [[2-[(1-methylpyrrol-2-yl)carbonylamino]-2-oxidanylidene-ethyl] 2-chloranyl-5-piperidin-1-ylsulfonyl-benzoate] | < 4.30
8 | CSc1ccccc1C(=O)NCc1ccc(F)cc1 | < 4.30
9 | O=C(O)c1cc(C(=O)C2CCCCC2)c[nH]1 [4-(cyclohexylcarbonyl)-1H-pyrrole-2-carboxylic acid] | < 4.30
10 | CC1Cc2ccccc2N1c1ncnc(N)c1[N+](=O)[O-] (stereo not drawn) [6-(2-methyl-2,3-dihydro-1H-indol-1-yl)-5-nitro-4-pyrimidinamine] | < 4.30
11 | O=C1CSCN1c1cc(Cl)ccc1Cl [3-(2,5-dichlorophenyl)-1,3-thiazolan-4-one] | < 4.30
12 | O=C(Nc1ccccc1C(=O)N1CCCC1)C1COc2ccccc2O1 (stereo not drawn) [SMR000287780] | < 4.30
13 | CCOC(=O)c1sc(=NC(=O)CCS(=O)(=O)c2ccccc2)n(C)c1C [2-[3-(benzenesulfonyl)-1-oxopropyl]imino-3,4-dimethyl-5-thiazolecarboxylic acid ethyl ester] | < 4.30
14 | COc1ccc(CNC(=O)C2Cc3ccccc3CN2C(=O)c2ccco2)cc1 (stereo not drawn) [SMR000343177] | < 4.30
15 | Cc1c(C#N)c(N)nc(Cl)c1C#N [2-amino-6-chloro-4-methyl-3,5-pyridinedicarbonitrile] | < 4.30
16 | Cc1cc(NC(=O)CCC(=O)N(Cc2ccco2)C(C(=O)NCC2CCCO2)c2ccncc2)no1 (stereo not drawn) [N'-(furan-2-ylmethyl)-N-(5-methyl-1,2-oxazol-3-yl)-N'-[2-oxidanylidene-2-(oxolan-2-ylmethylamino)-1-pyridin-4-yl-ethyl]butanediamide] | < 4.30
17 | CCCc1cc(=O)[nH]c(SCCCCN2C(=O)c3ccccc3C2=O)n1 [2-[4-[(4-oxidanylidene-6-propyl-1H-pyrimidin-2-yl)sulfanyl]butyl]isoindole-1,3-dione] | < 4.30
18 | COC(=O)c1c(NC(=O)C2C3CCC(C3)C2C(=O)O)sc2c1CCCCC2 (stereo not drawn) [SMR000298221] | < 4.30
